{"source": "patent US9133179B2", "about": "“2-methoxy-pyridin-4-yl-derivatives” (Actelion Pharmaceuticals Ltd., priority 2011, dated 2015)", "key": {"[1]": {"biological_target": "T1, human S1P1 (EDG1) receptor (Homo sapiens, UniProt P21453)", "T1 construct": "host or cells: U2OS (Tango EDG1-bla U2OS)", "T1 sequence (P21453 whole entry)": "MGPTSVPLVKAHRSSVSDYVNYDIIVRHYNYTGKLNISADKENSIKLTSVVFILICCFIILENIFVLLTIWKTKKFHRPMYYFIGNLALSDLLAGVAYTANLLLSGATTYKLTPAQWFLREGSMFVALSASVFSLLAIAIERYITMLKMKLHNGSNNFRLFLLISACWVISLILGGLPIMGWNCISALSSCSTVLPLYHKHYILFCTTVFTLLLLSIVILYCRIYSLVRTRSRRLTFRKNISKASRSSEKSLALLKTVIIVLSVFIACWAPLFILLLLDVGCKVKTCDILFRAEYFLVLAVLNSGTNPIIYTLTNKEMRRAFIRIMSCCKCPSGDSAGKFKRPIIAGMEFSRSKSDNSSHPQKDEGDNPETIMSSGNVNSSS", "assay": "S1P1 β-arrestin recruitment (Tango) assay to determine EC50 values", "format": "cell-based", "conditions": "Tango-EDG1 bla U2OS cells, 16 h incubation"}, "circulating lymphocytes": {"tested_on": "circulating lymphocytes", "assay": "Assessment of in vivo efficacy: circulating lymphocytes after oral administration to Wistar rats", "parameters": "species or system rat", "conditions": "6 h after oral administration of 10 mg/kg, normotensive male Wistar rats, compared to vehicle group"}, "rat trachea rings [2]": {"tested_on": "rat trachea rings", "assay": "Measurement of isometric force development: constriction of rat trachea rings", "protocol": "(§1) Measurement of Isometric Force Development\n(§2) Female Wistar rats are euthanized by exposure to CO2. The tracheae are excised and rings from the lower segments are prepared. […] A resting force of 2 g (20 mN) is applied to the ring preparation, and changes in force generation are measured using an isometric force recorder (EMKA Technologies Inc., Paris, France). Viability of rings is assessed by exposure to a depolarizing concentration of KCl (50 mM). Contraction of trachea is expressed as a percentage of the response to KCl.\n(§3) The compounds are prepared as stock solutions of 0.3 mM in pure DMSO."}, "rat trachea rings [3]": {"tested_on": "rat trachea rings", "protocol": "as §1, §2, §3"}, "[4]": {"conditions": "in % of the constriction induced by 50 mM KCl"}}, "data": [{"molecule": "4-((2-(4-(5-(2-Cyclopentyl-6-methoxypyridin-4-yl)-1,2,4-oxadiazol-3-yl)-2-ethyl-6-methylphenoxy)ethyl)amino)-4-oxobutanoic acid [Example 50]", "values": [{"measurement": "EC50", "setting": "[1]", "value": 100, "unit": "pM"}, {"measurement": "Lymphocyte counts", "setting": "circulating lymphocytes", "value": "−57", "unit": "%"}, {"measurement": "% trachea constriction at 10 nM", "setting": "rat trachea rings [2]; 10 nM, in % of the constriction induced by 50 mM KCl", "value": "<5", "unit": "%"}, {"measurement": "% trachea constriction at 30 nM", "setting": "rat trachea rings [2]; [4]", "value": 55, "unit": "%"}, {"measurement": "% trachea constriction at 0.1 μM", "setting": "rat trachea rings [2]; 0.1 μM, in % of the constriction induced by 50 mM KCl", "value": 103, "unit": "%"}, {"measurement": "concentration at which significant (or KCl-comparable) rat trachea constriction is shown", "setting": "rat trachea rings [3]", "value": 100, "unit": "nM"}]}, {"molecule": "CCc1cc(-c2nc(-c3cc(OC)nc(C4CCCC4)c3)no2)cc(C)c1OCCCC(=O)O", "note": "[Example 54, 4-(4-(3-(2-Cyclopentyl-6-methoxypyridin-4-yl)-1,2,4-oxadiazol-5-yl)-2-ethyl-6-methylphenoxy)butanoic acid]", "values": [{"measurement": "EC50", "setting": "[1]", "value": 100, "unit": "pM"}, {"measurement": "change in vivo at 10 mg/kg", "setting": "circulating lymphocytes; Rattus norvegicus, Lymphocyte, read-out: Lymphocyte counts", "value": -72, "unit": "%"}, {"measurement": "% trachea constriction at 30 nM", "setting": "rat trachea rings [2]; [4]", "value": "<5", "unit": "%"}, {"measurement": "% trachea constriction at 0.3 μM", "setting": "rat trachea rings [2]; 0.3 μM, in % of the constriction induced by 50 mM KCl", "value": 55, "unit": "%"}, {"measurement": "activation at 0.1 µM", "setting": "rat trachea rings [2]; Rattus norvegicus, read-out: % trachea constriction at 0.1 μM", "value": 5.6, "unit": "%"}, {"measurement": "activation at 1 µM", "setting": "rat trachea rings [2]; Rattus norvegicus, read-out: % trachea constriction at 1 μM", "value": 76, "unit": "%"}]}]}
